Reference: patent US20130261077A1 (priority 2012, published 2013)

Target: T1, FimH-CRD (Escherichia coli, UniProt P08191)
T1 construct: The first 177 amino acids of the FimH protein; thrombin tag (printed as 'fusion protein with thrombin') (cleaved yes); made in house; host or cells: bacteria (pET21b plasmid)
Test: Competitive binding assay by fluorescence polarization, assay 2 (compounds prepared by robotics, plates frozen and thawed)
Description: The first 177 amino acids of the FimH protein were expressed as a fusion protein with thrombin in a pET21b plasmid in bacteria. This FimH protein sequence contains the carbohydrate recognition domain (CRD) and shall be termed FimH-CRD. Following bacterial expression of the protein, the FimH-CRD protein was purified to homogeneity and the thrombin tag removed by protease cleavage. A competitive binding assay by fluorescence polarization was performed using 5 nM of the Alexa 647 mannoside probe and 60 nM of the FimH-CRD. The samples are assayed in a low volume 384 well microtiter plate in a final volume of 20 μl. The final assay buffer conditions are the following, 50 mM Tris-Cl, ph 7.0, 100 mM NaCl, 1 mM EDTA, 5 mM β-mercaptoethanol, 0.05% BSA and 2.5% DMSO. Two assays are performed for FimH, termed assay 1 or assay 2. The assay conditions are the same for both assays except the following: assay 1 has compounds prepared by manual dilution in a serial dilution factor with 12-point dose response while assay 2 has compounds prepared by a robotics system also through a serial dilution factor (12 point dose response) and initially prepared in duplicate in 384 well-Corning polypropylene round bottom plates. The assay 2 plates have compound which is then frozen and must be thawed prior to use. Initially the Alexa 647 probe and the FimH-CRD are added to the assay buffer and then 0.5 μl of test compound (assay 1 or 2) between 0.4 nM to 75 μM final concentration are added (12 point titration with 3-fold serial dilution). Control wells for the Alexa 647 probe are prepared with the same conditions except for the addition of the FimH-CRD protein. Plates are then incubated for 5 hrs at room temperature in the dark and under humid conditions to prevent drying. Plates are read using the SpectraMax Paradigm multi-mode plate reader and the appropriate fluorescent polarization detection cartridge (Alexa-647).
Alexa 647 mannoside probe is prepared using the similar procedure reported for FAM mannoside (Han, Z. et. al., 2010, J. Med. Chem., 53, 4779) and is described in the scheme below.
To a blue colored stirred solution of (2S,3S,4S,5S,6R)-2-(4-aminobutoxy)-6-(hydroxymethyl)tetrahydropyran-3,4,5-triol (2.21 mg, 0.009 mmol) and the (2E)-2-[(2E,4E)-5-[3,3-dimethyl-5-sulfonato-1-(3-sulfonatopropyl)indol-1-ium-2-yl]penta-2,4-dienylidene]-3-[6-(2,5-dioxopyrrolidin-1-yl)oxy-6-oxo-hexyl]-3-methyl-1-(3-sulfonatopropyl)indoline-5-sulfonate (Potassium Ion (3)) (4.9 mg, 0.0044 mmol) in DMF (44 μL) is added Et3N (5.4 mg, 7.0 μL, 0.053 mmol) at RT. The solution is stirred at room temperature over night, concentrated, dissolved in water and purified on 12 g C-18 silica gel cartridge on Isolera system using acetonitrile in water (0 to 40%, 10 CV) and followed by lyophilization to afford Alexa 647 mannoside probe (3.3 mg, 34%) as deep blue solid.
The Kd values of the compounds are determined from dose response curves using twelve concentrations per compound in duplicate. Curves are fitted to data points using Fluorescence Polarization competitive displacement analysis, and Kds are interpolated from the resulting curves using GraphPad Prism software, version […] (GraphPad software Inc., San Diego, Calif., USA).

T1 sequence (P08191 22-177): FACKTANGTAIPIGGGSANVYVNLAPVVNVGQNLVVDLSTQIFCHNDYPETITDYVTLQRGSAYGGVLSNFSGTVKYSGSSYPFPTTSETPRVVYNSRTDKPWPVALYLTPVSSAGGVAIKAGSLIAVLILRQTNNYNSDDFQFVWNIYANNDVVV

Structure (SMILES) | Kd [nM]
Cc1c(Br)cccc1[C@H]1O[C@H](CO)[C@@H](O)[C@H](O)[C@@H]1O [Compound 76, (2R,3S,4R,5S,6R)-2-(3-Bromo-2-methyl-phenyl)-6-(hydroxymethyl)tetrahydropyran-3,4,5-triol] | 38.9 ± 13
COc1cc([C@H]2O[C@H](CO)[C@@H](O)[C@H](O)[C@@H]2O)ccc1Br [Compound 77] | 81.7 ± 11
COC(=O)c1cccc(Cn2cc(-c3ccc([C@H]4O[C@H](CO)[C@@H](O)[C@H](O)[C@@H]4O)cc3)nn2)c1 [Compound 80, Methyl 3-[[4-[4-[(2R,3S,4R,5S,6R)-3,4,5-trihydroxy-6-(hydroxymethyl)tetrahydropyran-2-yl]phenyl]triazol-1-yl]methyl]benzoate] | 12.3 ± 6.2
OC[C@H]1O[C@H](c2ccc(-c3cn(Cc4ccccc4)nn3)cc2)[C@@H](O)[C@@H](O)[C@@H]1O [Compound 81, (2R,3S,4R,5S,6R)-2-[4-(1-Benzyltriazol-4-yl)phenyl]-6-(hydroxymethyl)tetrahydropyran-3,4,5-triol] | 15.2 ± 4.3
COC(=O)c1cc(C#Cc2cc([C@H]3O[C@H](CO)[C@@H](O)[C@H](O)[C@@H]3O)ccc2OC)cc(C(=O)OC)c1 [Compound 82, Dimethyl 5-[2-[2-methoxy-5-[(2R,3S,4R,5S,6R)-3,4,5-trihydroxy-6-(hydroxymethyl)tetrahydropyran-2-yl]phenyl]ethynyl]benzene-1,3-dicarboxylate] | 23.2 ± 15.1
CNC(=O)c1cccc(C#Cc2cc([C@H]3O[C@H](CO)[C@@H](O)[C@H](O)[C@@H]3O)ccc2OC)c1 [Compound 83, 3-[2-[2-Methoxy-5-[(2R,3S,4R,5S,6R)-3,4,5-trihydroxy-6-(hydroxymethyl)tetrahydropyran-2-yl]phenyl]ethynyl]-N-methyl-benzamide] | 32.2 ± 5.8
CNC(=O)c1cc(C#Cc2cc([C@H]3O[C@H](CO)[C@@H](O)[C@H](O)[C@@H]3O)ccc2OC)cc(C(=O)NC)c1 [Compound 84, 5-[2-[2-Methoxy-5-[(2R,3S,4R,5S,6R)-3,4,5-trihydroxy-6-(hydroxymethyl)tetrahydropyran-2-yl]phenyl]ethynyl]-N1,N3-dimethyl-benzene-1,3-dicarboxamide] | 27.5 ± 3.9
CNC(=O)c1cc(C#Cc2cccc([C@H]3O[C@H](CO)[C@@H](O)[C@H](O)[C@@H]3O)c2)cc(C(=O)NC)c1 [Compound 85, N1,N3-Dimethyl-5-[2-[3-[(2R,3S,4R,5S,6R)-3,4,5-trihydroxy-6-(hydroxymethyl)tetrahydropyran-2-yl]phenyl]ethynyl]benzene-1,3-dicarboxamide] | < 5
COC(=O)c1cccc(C#Cc2cccc([C@H]3O[C@H](CO)[C@@H](O)[C@H](O)[C@@H]3O)c2)c1 [Compound 86, Methyl 3-[2-[3-[(2R,3S,4R,5S,6R)-3,4,5-trihydroxy-6-(hydroxymethyl)tetrahydropyran-2-yl]phenyl]ethynyl]benzoate] | 23.7 ± 10.8
COC(=O)c1ccc(C#Cc2cccc([C@H]3O[C@H](CO)[C@@H](O)[C@H](O)[C@@H]3O)c2)cc1 [Compound 87, Methyl 4-[2-[3-[(2R,3S,4R,5S,6R)-3,4,5-trihydroxy-6-(hydroxymethyl)tetrahydropyran-2-yl]phenyl]ethynyl]benzoate] | 6.8 ± 0.2
COC(=O)c1cccc(C#Cc2ccc([C@H]3O[C@H](CO)[C@@H](O)[C@H](O)[C@@H]3O)cc2)c1 [Compound 88, Methyl 3-[2-[4-[(2R,3S,4R,5S,6R)-3,4,5-trihydroxy-6-(hydroxymethyl)tetrahydropyran-2-yl]phenyl]ethynyl]benzoate] | 11.8 ± 7.9
COC(=O)c1ccc(C#Cc2ccc([C@H]3O[C@H](CO)[C@@H](O)[C@H](O)[C@@H]3O)cc2)cc1 [Compound 89, Methyl 4-[2-[4-[(2R,3S,4R,5S,6R)-3,4,5-trihydroxy-6-(hydroxymethyl)tetrahydropyran-2-yl]phenyl]ethynyl]benzoate] | 14.5 ± 2.2
CNC(=O)c1cc(C#Cc2cccc([C@H]3O[C@H](CO)[C@@H](O)[C@H](O)[C@@H]3O)c2C)cc(C(=O)NC)c1 [Compound 90, N1,N3-Dimethyl-5-[2-[2-methyl-3-[(2R,3S,4R,5S,6R)-3,4,5-trihydroxy-6-(hydroxymethyl)tetrahydropyran-2-yl]phenyl]ethynyl]benzene-1,3-dicarboxamide] | 20.3 ± 2.2
OC[C@H]1O[C@H](c2cccc(C#Cc3ccccc3)c2)[C@@H](O)[C@@H](O)[C@@H]1O [Compound 91, (2R,3S,4R,5S,6R)-2-(Hydroxymethyl)-6-[3-(2-phenylethynyl)phenyl]tetrahydropyran-3,4,5-triol] | 23.6 ± 8.7
CNC(=O)c1cccc(C#Cc2cccc([C@H]3O[C@H](CO)[C@@H](O)[C@H](O)[C@@H]3O)c2)c1 [Compound 93, N-Methyl-3-[2-[3-[(2R,3S,4R,5S,6R)-3,4,5-trihydroxy-6-(hydroxymethyl)tetrahydropyran-2-yl]phenyl]ethynyl]benzamide] | 7.5 ± 2.5
CNC(=O)c1cc(/C=C/Cc2cccc([C@H]3O[C@H](CO)[C@@H](O)[C@H](O)[C@@H]3O)c2)cc(C(=O)NC)c1 [Compound 94, N1,N3-Dimethyl-5-[(E)-3-[3-[(2R,3S,4R,5S,6R)-3,4,5-trihydroxy-6-(hydroxymethyl)tetrahydropyran-2-yl]phenyl]prop-1-enyl]benzene-1,3-dicarboxamide] | 94.4 ± 13
OC[C@H]1O[C@H](c2cccc(C/C=C/c3cc(Cl)cc(Cl)c3)c2)[C@@H](O)[C@@H](O)[C@@H]1O [Compound 95, (2R,3S,4R,5S,6R)-2-[3-[(E)-3-(3,5-Dichlorophenyl)allyl]phenyl]-6-(hydroxymethyl)tetrahydropyran-3,4,5-triol] | 34 ± 7.8
OC[C@H]1O[C@H](c2cccc(C/C=C/c3ccccc3)c2)[C@@H](O)[C@@H](O)[C@@H]1O [Compound 96, (2R,3S,4R,5S,6R)-2-[3-[(E)-Cinnamyl]phenyl]-6-(hydroxymethyl)tetrahydropyran-3,4,5-triol] | 29 ± 2.3
CNC(=O)c1cc(CCCc2cccc([C@H]3O[C@H](CO)[C@@H](O)[C@H](O)[C@@H]3O)c2)cc(C(=O)NC)c1 [Compound 97, N1,N3-Dimethyl-5-[3-[3-[(2R,3S,4R,5S,6R)-3,4,5-trihydroxy-6-(hydroxymethyl)tetrahydropyran-2-yl]phenyl]propyl]benzene-1,3-dicarboxamide] | 31.6 ± 17.5
OC[C@H]1O[C@H](c2cccc(CCCc3cc(Cl)cc(Cl)c3)c2)[C@@H](O)[C@@H](O)[C@@H]1O [Compound 98, (2R,3S,4R,5S,6R)-2-[3-[3-(3,5-Dichlorophenyl)propyl]phenyl]-6-(hydroxymethyl)tetrahydropyran-3,4,5-triol] | 27.8 ± 2.1
OC[C@H]1O[C@H](c2cccc(CCCc3ccccc3)c2)[C@@H](O)[C@@H](O)[C@@H]1O [Compound 99] | 26.4 ± 1.1
COC(=O)c1ccc(CCc2ccc([C@H]3O[C@H](CO)[C@@H](O)[C@H](O)[C@@H]3O)cc2)cc1 [Compound 100, Methyl 4-[2-[4-[(2R,3S,4R,5S,6R)-3,4,5-trihydroxy-6-(hydroxymethyl)tetrahydropyran-2-yl]phenyl]ethyl]benzoate] | 12 ± 3.1
COC(=O)c1cccc(CCc2cccc([C@H]3O[C@H](CO)[C@@H](O)[C@H](O)[C@@H]3O)c2)c1 [Compound 101, Methyl 3-[2-[3-[(2R,3S,4R,5S,6R)-3,4,5-trihydroxy-6-(hydroxymethyl)tetrahydropyran-2-yl]phenyl]ethyl]benzoate] | 12.9 ± 9.7
OC[C@H]1O[C@H](c2cccc(CCc3ccccc3)c2)[C@@H](O)[C@@H](O)[C@@H]1O [Compound 102, (2R,3S,4R,5S,6R)-2-(Hydroxymethyl)-6-[3-(2-phenylethyl)phenyl]tetrahydropyran-3,4,5-triol] | 22 ± 3.4
COC(=O)c1ccc(CCc2cccc([C@H]3O[C@H](CO)[C@@H](O)[C@H](O)[C@@H]3O)c2)cc1 [Compound 103, Methyl 4-[2-[3-[(2R,3S,4R,5S,6R)-3,4,5-trihydroxy-6-(hydroxymethyl)tetrahydropyran-2-yl]phenyl]ethyl]benzoate] | 9.7 ± 4.5
